Legend:
TLR3 signaling [1] = assay: poly(I:C)-induced IL6 production by BEAS2B cells (ELISA); assay type: cell-based, human; conditions: for Fold induction above poly(I:C) induced IL6 production (BEAS2B): BEAS2B cells, 0.13 µg/ml poly(I:C) ± peptides (5 µM), IL6 ELISA, number of experiments in parentheses, duplicate or triplicate per experiment
Protocol: (§1) BEAS2B cells were plated at 1.5×10^4 cells/well in 96-well plates. 24 h after plating, the media was replaced with 50 µl of media containing the indicated treatments. Unless otherwise noted, poly(I:C) and LPS were added to the medium of cells to final concentrations of 0.13 µg/ml and 1 µg/ml, respectively. To activate RIG-I, 10 nM shR9 with a 5′ triphosphate was transfected into cells using Lipofectamine 2000 (Invitrogen, Carlsbad, CA). Supernatants were collected after 18-24 h and assayed for IL6 or IL8 secretion using an ELISA kit according to the manufacturer's protocol (BD Biosciences, San Diego, CA). The IL6 or IL8 level was calculated based on a standard curve fitted using a sigmoidal variable slope dose-response using software from GraphPad Prism (La Jolla, CA) and normalized to […] per well. For PBMCs, an initial 150,000 cells per well were suspended in 100 µl of RPMI medium (Invitrogen) containing 10% FBS and incubated overnight at 37°C, 5% CO2. The cells were treated with poly(I:C) at 5 µg/ml in the absence or presence of LL37 (5.6 µM) for 20–24 h. […] The supernatants were collected and frozen until analysis. Cytokine levels for IP10, IL1α and MCP1 were measured using a Milliplex assay kit (Millipore, Billerica, MA).

BEAS2B cells = assay: WST-1 viability of BEAS2B cells; assay type: cell-based, human
Protocol: Supplementary file pone.0026632.s002.tif: Figure S2 Effects of LL37 concentration on viability of BEAS2B cells±poly(I:C). Cell viability was assessed using the WST-1 assay (Clontech, Mountain View CA). After treatments, cells were incubated with WST-1 substrate for 4 h and absorbance was measured at 450 nm with 630 nm as reference. The readout performed in the absence of LL37 (i.e. Control) is defined as 100%. […] The graph is representative of five experiments. […] (TIF) Click here for additional data file.

[2] = test system: human peripheral blood mononuclear cells (PBMCs); assay: Cytokine production in human PBMCs (Milliplex); assay type: cell-based; conditions: peptide 5.6 µM
Protocol: as §1

TLR3 = TLR3 ISRE luciferase reporter assay in 293T/TLR3 cells; assay type: cell-based, human; conditions: for Fold induction above Reovirus dsRNA (293T/TLR3 reporter): 293T/TLR3 cells, reovirus genomic RNA 2 µg/ml, peptides 2 µM, ISRE luciferase reporter
Protocol: Luciferase reporter assays were performed according to the protocol of [36]. Briefly, HEK 293T cells were plated in white-walled 96-well plates at 4.4×10^4 cells/well and transfected with plasmids pUNO-huTLR3 (0.5 ng/well), pISRE-Luc (30 ng/well) and phRL-TK (5 ng/well) using Lipofectamine 2000. The cells were grown for 24 h to allow expression from the plasmids. […] After 18–24 h of incubation, luciferase activity was determined using the Dual-Glo Luciferase assay system (Promega).

TLR3 signaling [3] = assay: Viral RNA-induced IL6 production by BEAS2B cells; assay type: cell-based, human; conditions: Sc37 2.2 µM, n>4
Protocol: Poly(I:C) (Amersham Biosciences or GE Healthcare) was reconstituted in phosphate buffered saline (PBS; Invitrogen, Carlsbad, CA). Size-selected Poly(I:C) of 50–125 bps were generated as described previously. Fluorescently-labeled Cy5-poly(I:C) was made as described in [43]. LPS was from Sigma-Aldrich Inc. DsRNAs from Reovirus were extracted from purified virions (a kind gift from Dr. Danthi, Indiana University). […] The ssRNAs were then adjusted to a 1∶1 molar ratio in PBS and heated to 95°C for five minutes followed by slow cooling to room temperature to allow the strands to anneal to form S4 dsRNA. Plant endornavirus BPEV dsRNA was the kind gift of R. Valverde (Louisana State University, Baton Rouge, LA). Positive-strand ssRNA from hepatitis virus JFH1 was made by in vitro transcription from a cDNA of JFH-1 [63]. Plasmids encoding the wild-type TLR3, TLR4 and RIG-I were from InvivoGen (San Diego, CA). […]
BEAS2B cells were plated at 1.5×10^4 cells/well in 96-well plates. […] The IL6 or IL8 level was calculated based on a standard curve fitted using a sigmoidal variable slope dose-response using software from GraphPad Prism (La Jolla, CA) and normalized to µg/ml per well. […] Cytokine levels for IP10, IL1α and MCP1 were measured using a Milliplex assay kit (Millipore, Billerica, MA).

[4] = Negative-stain electron microscopy of particle dimensions; assay type: physicochemical; conditions: negative-stain TEM, pH 7.4, linear regression
Protocol: Poly(I:C) at 50 µg/ml (low molecular weight, Invitrogen) was incubated alone or with LL37 or Sc37 (each at 10 µM) in Tris-buffered saline, pH 7.4 at 4°C for 15 min. Sample of 10 µl was placed on top of a glow-discharged 400 mesh carbon-coated copper grid (EMS). After one min incubation at RT, the drop was removed by absorption onto filter paper. The grids containing the samples were then stained with 2% uranium acetate for 20 s. Excess stain was removed and the grids were air-dried for 15 min. Micrographs of the grids were taken with JEOL transmission microscope at 80 kV, using 40,000x magnification. The micrographs were collected and measurement of length and width of particles were calculated using EMAN software as described by. Data points for each treatment were fitted using linear regression and the slope of each line was calculated using GraphPad Prism software.

TLR4 signaling = assay: LPS-induced IL6 production by BEAS2B cells (ELISA); assay type: cell-based, human; conditions: LPS 1 µg/ml, T3/T4 0.6–10 µM, Tat and Arg(9) 10 µM
Protocol: as §1

## O=C(O[C@@H]1Cc2c(O)cc(O)cc2O[C@@H]1c1cc(O)c(O)c(O)c1)c1cc(O)c(O)c(O)c1 [EGCG]
TLR3 signaling [1]; BEAS2B, data not shown
  Effect on the Tat peptide's enhancement of IL6 production: did not affect

## CC[C@H](C)[C@H](NC(=O)[C@H](CCCCN)NC(=O)[C@H](CCC(=O)O)NC(=O)[C@H](CCCCN)NC(=O)[C@H](CO)NC(=O)[C@H](CCCCN)NC(=O)[C@H](CCCNC(=N)N)NC(=O)[C@H](Cc1ccccc1)NC(=O)[C@H](Cc1ccccc1)NC(=O)[C@H](CC(=O)O)NC(=O)CNC(=O)[C@H](CC(C)C)NC(=O)[C@@H](N)CC(C)C)C(=O)NCC(=O)N[C@@H](CCCCN)C(=O)N[C@@H](CCC(=O)O)C(=O)N[C@@H](Cc1ccccc1)C(=O)N[C@@H](CCCCN)C(=O)N[C@@H](CCCNC(=N)N)C(=O)N[C@H](C(=O)N[C@H](C(=O)N[C@@H](CCC(N)=O)C(=O)N[C@@H](CCCNC(=N)N)C(=O)N[C@H](C(=O)N[C@@H](CCCCN)C(=O)N[C@@H](CC(=O)O)C(=O)N[C@@H](Cc1ccccc1)C(=O)N[C@@H](CC(C)C)C(=O)N[C@@H](CCCNC(=N)N)C(=O)N[C@@H](CC(N)=O)C(=O)N[C@@H](CC(C)C)C(=O)N[C@H](C(=O)N1CCC[C@H]1C(=O)N[C@@H](CCCNC(=N)N)C(=O)N[C@H](C(=O)N[C@@H](CCC(=O)O)C(=O)N[C@@H](CO)C(=O)O)[C@@H](C)O)C(C)C)[C@@H](C)CC)C(C)C)[C@@H](C)CC [LL37]
BEAS2B cells; BEAS2B, WST-1, LL37 3 µM
  Toxicity in the presence of poly(I:C): did not show significant toxicity
BEAS2B cells; BEAS2B, WST-1, LL37 up to 5 µM, representative of five experiments
  Effect on cell viability in the absence of poly(I:C): no effect on cell viability
BEAS2B cells; at or less than 3 µM, by itself or in the presence of poly(I:C), WST-1, n = 5
  Effect on BEAS2B cell viability: minimal effects
[2]; data not shown
  Cytotoxicity judged by morphology of PBMCs: no obvious cytotoxicity

## COc1cc2ncnc(Nc3cccc(Cl)c3)c2cc1OC [tyrphostin AG 1478]
TLR3 signaling [1]; BEAS2B, unpublished observations
  Effect on IL6 production induced by poly(I:C) or poly(I:C) in combination with LL37: had no effect

## LLGNFFRKSKQKIGKQFKRIVQRIKNFFRNLVPRTQS [Sc37]
TLR3 signaling [1]
  Fold induction above poly(I:C) induced IL6 production (BEAS2B): 1.05±0.11 (6) fold
TLR3 signaling [1]; BEAS2B, peptide 2.2 µM, poly(I:C) 0.13 µg/ml, 20 h, LL37 n = 23, Sc37 n = 7
  Enhancement of poly(I:C)-induced IL6 levels compared to poly(I:C) alone: did not enhance IL6 production
TLR3; 293T/TLR3, peptide 2 µM, Reovirus dsRNA, LL37 n = 8, Sc37 n = 4
  Additional increase of reporter levels above that of the Reovirus dsRNAs: did not affect reporter activity
TLR3
  Fold induction above Reovirus dsRNA (293T/TLR3 reporter): 1.0±0.03 (9) fold
[2]; poly(I:C) 5 µg/ml, 24 h, n = 3
  Increase of IL1α, MCP1 and IP10 levels with poly(I:C) above poly(I:C) or peptide alone: did not significantly increase
TLR3 signaling [3]
  Effect on IL6 production by the viral RNAs tested: did not increase IL6 production
[4]
  Slope of best fit line of particle lengths and widths: 0.8 ± 0.05

## NAKTRRHERRRKLAIER [P22N(14-30), arginine-containing peptide]
TLR3 signaling [1]; 5 µM
  Fold induction above poly(I:C) induced IL6 production (BEAS2B): 1.0±0 (3) fold
TLR3 signaling [1]; listed as P22(14-30), 5 µM
  Fold induction above poly(I:C) induced IL6 production (BEAS2B): did not enhance TLR3 signaling
TLR3
  Fold induction above Reovirus dsRNA (293T/TLR3 reporter): 1.3±0.14 (4) fold

## RQIKIWFQNRRMKWKK [Penetrin, peptide derived from the protein antennapedia; cell-penetrating peptide]
TLR3 signaling [1]
  Fold induction above poly(I:C) induced IL6 production (BEAS2B): 2.9±1.2 (3) fold
TLR3
  Fold induction above Reovirus dsRNA (293T/TLR3 reporter): 1.1±0.05 (4) fold

## RRRRRRRRR [Arg(9), cell-penetrating peptide of nine arginines]
TLR4 signaling
  Effect on LPS-induced IL6 production: no effect on LPS signaling
TLR3
  Fold induction above Reovirus dsRNA (293T/TLR3 reporter): 1.5±0.17 (4) fold

## TRAQRRAAARGGGVVIAC [Peptide 3]
TLR3 signaling [1]
  Fold induction above poly(I:C) induced IL6 production (BEAS2B): 3±0.62 (8) fold
TLR3
  Fold induction above Reovirus dsRNA (293T/TLR3 reporter): 1 fold

## TRAQRRAAARGVQIVYKC [T4, peptide derived from the Brome mosaic virus (BMV) capsid]
TLR3 signaling [1]
  Fold induction above poly(I:C) induced IL6 production (BEAS2B): 5.6±1.4 (6) fold
TLR4 signaling
  Effect on LPS-induced IL6 production: not affected
TLR3
  Fold induction above Reovirus dsRNA (293T/TLR3 reporter): 1 fold

## TRAQRRAAARRNRACCPGCCS [T3, peptide derived from the Brome mosaic virus (BMV) capsid]
TLR3 signaling [1]
  Fold induction above poly(I:C) induced IL6 production (BEAS2B): 3±0.4 (8) fold
TLR4 signaling
  Effect on LPS-induced IL6 production: not affected
TLR3
  Fold induction above Reovirus dsRNA (293T/TLR3 reporter): 1.3±0.08 (4) fold

## TSAQSSAAASSNSACCPGCCS [T3Ser, variant of the peptide T3 that had the arginines substituted with serines]
TLR3 signaling [1]; 5 µM
  Fold induction above poly(I:C) induced IL6 production (BEAS2B): 0.8±0.12 (4) fold
TLR3 signaling [1]; listed as T3ser, 5 µM
  Fold induction above poly(I:C) induced IL6 production (BEAS2B): lost the ability to enhance IL6 production
TLR3
  Fold induction above Reovirus dsRNA (293T/TLR3 reporter): 1 fold

## YGRKKRRQRRR [Tat47-57, Tat peptide that is rich in basic residues; cell-penetrating peptide]
TLR3 signaling [1]; 5 µM
  Fold induction above poly(I:C) induced IL6 production (BEAS2B): 3.7±0.43 (10) fold
TLR3 signaling [1]; listed as Tat peptide, 5 µM
  Fold induction above poly(I:C) induced IL6 production (BEAS2B): at least 2.9 fold
TLR4 signaling
  Effect on LPS-induced IL6 production: no effect on LPS signaling
TLR3
  Fold induction above Reovirus dsRNA (293T/TLR3 reporter): 1.3±0.19 (3) fold

## mCRAMP
TLR3 signaling [1]; BEAS2B, KR18-37 4 µM, mCRAMP 5 µM, poly(I:C) 0.13 µg/ml, 24 h, n = 3
  Enhancement of IL6 production in response to poly(I:C): unable to enhance IL6 production

## poly(I:C)
TLR3 signaling [1]; BEAS2B, poly(I:C) added to medium, n = 12
  IL6 levels above basal levels: 15 ± 2.2 fold
[4]
  Slope of best fit line of particle lengths and widths: 0.53 ± 0.12
